Assay results: patent US20060100431A1, “Biologically active compounds” (Amura Therapeutics Limited, priority 2002, published 2006)

Legend:
Type in all cases: biochemical
Wild-type cruzipain = Wild-type cruzipain (Trypanosoma cruzi, UniProt P25779); experiment: Trypanosoma cruzi cruzipain peptidase activity assay (Ki); settings: read-out: Ki, inhibitors of cruzain and cruzipains
How it was run: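 Native cruzipain from T. cruzi Dm28 epimastigotes, 2.5 nM, in 100 mM sodium phosphate pH 6.75 with 1 mM EDTA and 10 mM L-cysteine, 25 °C, DMSO <1%. Rates taken from continuous fluorogenic substrate read; Ki by regression assuming reversible pure-competitive inhibition.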

human cathepsin L = target: T1, human cathepsin L (Homo sapiens, UniProt P07711); experiment: Cathepsin L peptidase activity assay (Ki); settings: read-out: Ki, inhibitors of cathepsin L
T1 construct: purchased CN Biosciences
T1 sequence (P07711 114-333): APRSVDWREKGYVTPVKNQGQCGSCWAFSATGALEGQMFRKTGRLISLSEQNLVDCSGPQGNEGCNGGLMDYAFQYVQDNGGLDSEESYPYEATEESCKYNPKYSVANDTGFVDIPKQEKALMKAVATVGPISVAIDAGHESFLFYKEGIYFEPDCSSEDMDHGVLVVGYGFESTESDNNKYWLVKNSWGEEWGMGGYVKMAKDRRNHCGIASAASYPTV
How it was run: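 Run at 25±1° C with DMSO under 1%: buffer was 10 mM BTP pH 6.5 containing 1 mM EDTA, 1 mM CaCl2 and 5 mM 2-mercaptoethanol. Enzyme (1 nM cathepsin L) was added last to start hydrolysis of Ac-Phe-Arg-AMC held at KM^app (~20 μM), followed kinetically by fluorescence at 365/450 nm.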

human cathepsin B = target: T2, human cathepsin B (Homo sapiens, UniProt P07858); experiment: Cathepsin B peptidase activity assay (Ki); settings: read-out: Ki, inhibitors of cathepsin B
T2 construct: purchased CN Biosciences
How it was run: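 Buffer: 10 mM bis-tris-propane pH 6.5, 1 mM EDTA, 5 mM 2-mercaptoethanol, 1 mM CaCl2; DMSO <1%. Ki assumed reversible, pure-competitive, from Ki^app=Ki(1+[So]/KM^app) by non-linear regression.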

CPB2.8ΔCTE = target: T3, CPB2.8ΔCTE (Leishmania mexicana, UniProt P36400); experiment: Leishmania mexicana cysteine protease B (CPB) peptidase activity assay (Ki); settings: Ki, inhibitors of Leismania mexicana CPB protease
T3 construct: Wild-type recombinant CPB without the C-terminal extention (i.e. CPB2.8ΔCTE); Dr. Jeremy Mottram (Wellcome Centre for Molecular Parasitology, University of Glasgow)
T3 sequence (P36400 126-343, stated change not applied): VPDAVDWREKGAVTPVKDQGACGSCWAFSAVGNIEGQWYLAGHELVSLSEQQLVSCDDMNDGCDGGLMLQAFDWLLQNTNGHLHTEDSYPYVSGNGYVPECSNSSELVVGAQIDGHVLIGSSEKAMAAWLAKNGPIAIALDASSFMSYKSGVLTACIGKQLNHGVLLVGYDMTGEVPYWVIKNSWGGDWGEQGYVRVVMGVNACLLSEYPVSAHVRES
How it was run: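 Apparent Ki was derived by regression of activity against inhibitor concentration, assuming pure-competitive reversible binding. Reaction: 0.25 nM CPB lacking the C-terminal extension, pH 5.5 acetate buffer (1 mM EDTA, 200 mM NaCl, 10 mM DTT), 25 °C, followed by continuous substrate fluorescence.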

Bovine cathepsin S = target: T4, Bovine cathepsin S (Bos taurus, UniProt P25326); experiment: Cathepsin S peptidase activity assay, bovine enzyme (Ki); settings: species of cathepsin S not given; read-out: Ki, inhibitors of cathepsin S
T4 construct: purchased CN Biosciences
T4 sequence (P25326 115-331): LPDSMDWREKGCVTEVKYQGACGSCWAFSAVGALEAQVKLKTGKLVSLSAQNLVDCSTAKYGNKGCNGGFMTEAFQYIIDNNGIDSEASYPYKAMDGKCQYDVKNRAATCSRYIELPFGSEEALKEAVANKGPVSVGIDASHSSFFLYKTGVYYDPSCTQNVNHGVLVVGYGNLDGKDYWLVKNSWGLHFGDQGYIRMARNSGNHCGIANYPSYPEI
Procedure: Unless otherwise stated, all general chemicals and biochemicals were purchased from either the Sigma Chemical Company, Poole, Dorset, U.K or from Fisher Scientific UK, Loughborough, Leicestershire, U.K. Absorbance assays were carried out in flat-bottomed 96-well plates (Spectra; Greiner Bio-One Ltd., Stonehouse, Gloucestershire, U.K.) using a SpectraMax PLUS384 plate reader (Molecular Devices, Crawley, U.K.). Fluorescence high throughput assays were carried out in either 384-well microtitre plates (Corning Costar 3705 plates, Fisher Scientific) or 96-well ‘U’ bottomed Microfluor W1 microtitre plates (Thermo Labsystems, Ashford, Middlesex, U.K.). Fluorescence assays were monitored using a SpectraMax Gemini fluorescence plate reader (Molecular Devices). For substrates employing either a 7-amino-4-methylcoumarin (AMC) or a 7-amino-4-trifluoromethylcoumarin (AFC) fluorophore, assays were monitored at an excitation wavelength of 365 nm and an emission wavelength of 450 nm and the fluorescence plate reader calibrated with AMC. For substrates employing a 3-amino-benzoyl (Abz) fluorophore, assays were monitored at an excitation wavelength of 310 nm and an emission wavelength of 445 nm; the fluorescence plate reader calibrated with 3-amino-benzamide (Fluka). Unless otherwise indicated, all the peptidase substrates were purchased from Bachem UK, St Helens, Merseyside, UK. Substrates utilizing fluorescence resonance energy transfer methodology (i.e. FRET-based substrates) were synthesized at Incenta Limited using published methods (Atherton & Sheppard, Solid Phase Peptide Synthesis, IRL Press, Oxford, U.K, 1989) and employed Abz (2-aminobenzoyl) as the fluorescence donor and 3-nitro-tyrosine [Tyr(NO2)] as the fluorescence quencher (Meldal, M. and Breddam, K., Anal. Biochem, 195, 141-147, 1991). Hydroxyethylpiperazine ethanesulfonate (HEPES), tris-hydroxylmethyl aminomethane (tris) base, bis-tris-propane and all the biological detergents (e.g. CHAPS, zwittergents, etc.) were purchased from CN Biosciences UK, Beeston, Nottinghamshire, U.K. Glycerol was purchased from Amersham Pharmacia Biotech, Little Chalfont, Buckinghamshire, U.K. Stock solutions of substrate or inhibitor were made up to 10 mM in 100% dimethylsulfoxide (DMSO) (Rathburns, Glasgow, U.K.) and diluted as appropriately required. In all cases the DMSO concentration in the assays was maintained at less than 1% (vol./vol.).
Assay protocols were based on literature precedent (Table 4; Barrett, A. J., Rawlings, N. D. and Woessner, J. F., 1998, Handbook of Proteolytic Enzymes, Academic Press, London and references therein) and modified as required to suit local assay protocols. Enzyme was added as required to initiate the reaction and the activity, as judged by the change in fluorescence upon conversion of substrate to product, was monitored over time. All assays were carried out at 25±1° C.
Bovine cathepsin S, human cathepsin L, human cathepsin H and human cathepsin B were obtained from CN Biosciences. Recombinant human cathepsin S, human cathepsin K and human cathepsin X were obtained from Dr. Boris Turk (Josef Stefan Institute, Ljubljana, Slovenia). Unless otherwise stated, all peptidase activity assays were carried out in 10 mM bis-tris-propane (BTP), pH 6.5 containing 1 mM EDTA, 5 mM 2-mercaptoethanol and 1 mM CaCl2. Human cathepsin H activity assays were carried out in 10 mM BTP pH 6.5, 142 mM NaCl2, 1 mM CaCl2, 1 mM EDTA, 1 mM DTT, 0.035 mM Zwittergent 3-16. Human cathepsin K assays were carried out in 100 mM sodium acetate; pH 5.5 containing 20 mM L-cysteine and 1 mM EDTA (Bossard, M. J., et. al., J. Biol. Chem., 21, 12517-12524, 1996). Human cathepsin X assays were carried out in 100 mM sodium acetate; pH 5.5 containing 20 mM L-cysteine; 0.05% (w/v) Brij 35 and 1 mM EDTA (Santamaria, I., et. al., J. Biol. Chem., 273, 16816-16823, 1998; Klemencic, J, et al., Eur. J. Biochem., 267, 5404-5412, 2000).

Measured: Ki

Sequence of Wild-type cruzipain (P25779 whole entry): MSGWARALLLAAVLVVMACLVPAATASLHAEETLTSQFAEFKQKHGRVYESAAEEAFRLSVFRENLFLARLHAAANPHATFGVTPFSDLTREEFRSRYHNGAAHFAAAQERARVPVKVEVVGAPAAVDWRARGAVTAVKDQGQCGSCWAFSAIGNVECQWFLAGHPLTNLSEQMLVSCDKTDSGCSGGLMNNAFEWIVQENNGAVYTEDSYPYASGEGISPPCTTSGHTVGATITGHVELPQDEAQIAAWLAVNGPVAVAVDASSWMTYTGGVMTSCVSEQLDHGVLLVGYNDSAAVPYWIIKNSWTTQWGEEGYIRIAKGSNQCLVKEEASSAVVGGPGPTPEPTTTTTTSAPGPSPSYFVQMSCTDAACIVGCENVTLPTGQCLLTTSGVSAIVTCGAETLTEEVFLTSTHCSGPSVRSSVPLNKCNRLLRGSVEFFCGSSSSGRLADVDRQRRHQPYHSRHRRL

CC(C)C[C@H](NC(=O)c1cc2ccccc2s1)C(=O)N1CC[C@@H]2[C@H]1C(=O)CN2C(=O)c1cccnc1 [Example 15, (3aR,6aS)-Benzo[b]thiophene-2-carboxylic acid {(1S)-3-methyl-1-[6-oxo-4-(pyridine-3-carbonyl)-hexahydro-pyrrolo[3,2-b]pyrrole-1-carbonyl]-butyl}-amide]
< 5 µM: Wild-type cruzipain | human cathepsin L | human cathepsin B

CC(C)C[C@H](NC(=O)c1ccc(C(C)(C)C)cc1)C(=O)N1CC[C@@H]2[C@H]1C(=O)CN2C(=O)c1ccc(-c2ccccc2)s1 [Example 28, (3aR,6aS)-4-tert-Butyl-N-{(1S)-3-methyl-1-[6-oxo-4-(5-phenyl-thiophene-2-carbonyl)-hexahydro-pyrrolo[3,2-b]pyrrole-1-carbonyl]-butyl}-benzamide]
not listed: Bovine cathepsin S
< 5 µM: all other assays above

CC(C)C[C@H](NC(=O)c1ccc(C(C)(C)C)cc1)C(=O)N1CC[C@@H]2[C@H]1C(=O)CN2C(=O)c1csc2ccccc12 [Example 31]
not listed: Bovine cathepsin S
< 5 µM: all other assays above

CC(C)C[C@H](NC(=O)c1ccc(N(C)C)cc1)C(=O)N1CC[C@@H]2[C@H]1C(=O)CN2C(=O)c1cccc(Cl)c1 [Example 73, (3aR,6aS)-N-{(1S)-1-[4-(3-Chloro-benzoyl)-6-oxo-hexahydro-pyrrolo[3,2-b]pyrrole-1-carbonyl]-3-methyl-butyl}-4-dimethylamino-benzamide]
not listed: Bovine cathepsin S
< 5 µM: all other assays above

CC(C)C[C@H](NC(=O)c1ccc(N(C)C)cc1)C(=O)N1CC[C@@H]2[C@H]1C(=O)CN2C(=O)C1CCCCC1 [Example 104, (3aR,6aS)-N-[(1S)-1-(4-Cyclohexanecarbonyl-6-oxo-hexahydro-pyrrolo[3,2-b]pyrrole-1-carbonyl)-3-methyl-butyl]-4-dimethylamino-benzamide]
not listed: Bovine cathepsin S
< 5 µM: all other assays above

CC(C)C[C@H](NC(=O)c1cccc(CN)c1)C(=O)N1CC[C@@H]2[C@H]1C(=O)CN2S(=O)(=O)c1ccccc1 [Example 123, (3aR,6aS)-3-Aminomethyl-N-[(1S)-1-(4-benzenesulfonyl-6-oxo-hexahydro-pyrrolo[3,2-b]pyrrole-1-carbonyl)-3-methyl-butyl]-benzamide]
< 5 µM: Bovine cathepsin S

O=C(N[C@@H](CC1CCCCC1)C(=O)N1CC[C@@H]2[C@H]1C(=O)CN2C(=O)c1ccccc1)c1csc2ccccc12 [Example 254, (3aR,6aS)-Benzo[b]thiophene-3-carboxylic acid [(1S)-2-(4-benzoyl-6-oxo-hexahydro-pyrrolo[3,2-b]pyrrole-1-yl)-1-cyclohexylmethyl-2-oxo-ethyl]-amide]
< 5 µM: Wild-type cruzipain | human cathepsin L | human cathepsin B

O=C(N[C@@H](CC1CCCCC1)C(=O)N1CC[C@@H]2[C@H]1C(=O)CN2C(=O)c1cccc2ccccc12)c1ccsc1 [Example 255, (3aR,6aS)-Thiophene-3-carboxylic acid {(1S)-1-cyclohexylmethyl-2-[4-(naphthalene-1-carbonyl)-6-oxo-hexahydro-pyrrolo[3,2-b]pyrrol-1-yl]-2-oxo-ethyl}-amide]
< 5 µM: Wild-type cruzipain | human cathepsin L | human cathepsin B

CS(=O)(=O)c1ccccc1C(=O)N1CC(=O)[C@@H]2[C@H]1CCN2C(=O)[C@H](CSCc1ccccc1)NC(=O)c1ccsc1 [Example 261, (3aR,6aS)-Thiophene-3-carboxylic acid {(1R)-1-benzylsulfanylmethyl-2-[4-(2-methanesulfonyl-benzoyl)-6-oxo-hexahydro-pyrrolo[3,2-b]pyrrol-1-yl]-2-oxo-ethyl}-amide]
< 5 µM: Wild-type cruzipain | human cathepsin L | human cathepsin B

CC(C)C[C@H](NC(=O)C(c1ccccc1)c1ccccc1)C(=O)N1CC[C@@H]2[C@H]1C(=O)CN2C(=O)c1csc2ccccc12 [Example 271, (3aR,6aS)-N-{(1S)-1-[4-(Benzo[b]thiophene-3-carbonyl)-6-oxo-hexahydro-pyrrolo[3,2-b]pyrrole-1-carbonyl]-3-methyl-butyl}-2,2-diphenyl-acetamide]
not listed: Bovine cathepsin S
< 5 µM: all other assays above

O=C(N[C@@H](CC1CCCCC1)C(=O)N1CC[C@@H]2[C@H]1C(=O)CN2C(=O)c1ccccc1)c1ccc2ncsc2c1 [Example 286, (3aR,6aS)-Benzothiazole-6-carboxylic acid [(1S)-2-(4-benzoyl-6-oxo-hexahydro-pyrrolo[3,2-b]pyrrole-1-yl)-1-cyclohexylmethyl-2-oxo-ethyl]-amide]
not listed: Bovine cathepsin S
< 5 µM: all other assays above

O=C(N[C@@H](CC1CCCCC1)C(=O)N1CC[C@@H]2[C@H]1C(=O)CN2C(=O)c1ccccc1)c1ccccc1 [Example 290, (3aR,6aS)-N-[(1S)-2-(4-Benzoyl-6-oxo-hexahydro-pyrrolo[3,2-b]pyrrol-1-yl)-1-cyclohexylmethyl-2-oxo-ethyl]-benzamide]
< 5 µM: Wild-type cruzipain | human cathepsin L | human cathepsin B

Cc1cccc(C(=O)N2CC(=O)[C@@H]3[C@H]2CCN3C(=O)[C@H](CC2CCCCC2)NC(=O)c2ccsc2)c1 [Example 292, (3aR,6aS)-Thiophene-3-carboxylic acid {(1S)-1-cyclohexylmethyl-2-[4-(3-methyl-benzoyl)-6-oxo-hexahydro-pyrrolo[3,2-b]pyrrol-1-yl]-2-oxo-ethyl}-amide]
< 5 µM: Wild-type cruzipain | human cathepsin L | human cathepsin B
